From US20110124574A1, “RESTORATION OF ESTROGEN RECEPTOR-(ALPHA) ACTIVITY” (priority 2008, published 2011)
Where no end group is shown, it is not given here. The star is where a group is joined. For = O=C*

Key:
Assay type in all cases: cell-based, human
ERα [1] = assay: ERα mRNA by RT-PCR in stimulated MDA-MB-231 cells; settings: time points 6, 12, 18 and 24 hours
Description: Breast cancer cells were grown in 6 well plates and stimulated with recombinant Wnt-5a protein (rW5a) or the Wnt-5a derived Foxy-5 peptide (F5), for 6, 12, 18 or 24 h. RNA was extracted at the end time point, cDNA synthesized and subjected to RT-PCR for ERα and the housekeeping gene, β-actin. A: MDA-MB-231 breast cancer cells, B: MDA-MB-468 breast cancer cells. The positive control (Pos) is RNA extracted from T47D cells which express ERα. The negative control represents a water control.
Stimulation of cells was performed with recombinant Wnt-5a (0.6 μg/ml) and recombinant Wnt-3a (0.1 μg/ml and in a control experiment, 0.6 μg/ml) (R&D Systems Abington, UK) for times as indicated. The Wnt-5a derived formylated hexapeptide, Foxy-5 (formyl-MDGCEL) (SEQ. ID. NO. 1) designed in the laboratory of the inventors, and a formylated random hexapeptide (formyl-MSADVG) (SEQ: ID: NO: 16) were either synthesized by Pepscan Presto (Lelystad, The Netherlands) or Inbiolabs (Tallinn, Estonia). The peptides were purified by RP-HPLC and mass spectrometry, and the >95% pure peptides were synthesized three times. […]
RNA extraction was performed in a designated clean RNA area with the addition of 500 μl TRIzol to each sample. […] The RNA concentration was measured using a Nanodrop Spectrophotometer ND-1000 (Bio-Rad (Hercules Calif.)). […]

Caspase 3 = Caspase 3 activity assay (fluorometric, DEVD-amc); settings: MDA-MB-231, stimulation plus tamoxifen 1 μM 20 hours; compared to untreated cells or tamoxifen alone
Description: MDA-MB-231 cells were grown in 6 well plates and stimulated with recombinant Wnt-5a protein (rW5a) or the Wnt-5a derived Foxy-5 peptide (F5), for 24 or 48 h. Cells were treated with tamoxifen for the final 20 h and their apoptotic responses were measured via different methods. […] Arrows highlight apoptotic cells. Bars represent […]. B: Following treatment with rW5a, F5 and tamoxifen, or tamoxifen alone, cells were lysed and subjected to SDS-PAGE, transferred to nitrocellulose membranes and blotted for cleaved caspase 3. C: Treated cells were assessed for their relative caspase 3 activity using fluorometric spectrophotometry. The graph represents 6 separate experiments. * P<0.01, ** P<0.001. D: MTT assays were also performed on MDA-MB-231 cells treated with rWnt-5a, F5 and tamoxifen, or tamoxifen alone (MDA-MB-231 and MCF-7 cells) to assess cell growth inhibition. The graph represents the average of 6 separate experiments, with standard deviation represented by error bars. ** P<0.01, *** P<0.001.
Caspase 3 activity was determined via fluorescent spectrometry. The fluorogenic peptide DEVD-amc (Upstate Biotech) was used as a substrate. […] Reactions were incubated at 37° C. for 1 h and analysed on a FLUOstar plate reader (BMG Lab technologies). The total protein content of each lysates was measured using the Coomassie Plus Protein Assay and read outs averaged and adjusted accordingly. […]

ERα [2] = assay: RT-PCR of estrogen responsive genes CATD and EBAG9 after estradiol and tamoxifen; settings: MDA-MB-231, hormone free media, pretreatment, estradiol plus tamoxifen, at 48 hours
Description: MDA-MB-231 cells were grown in 6 well plates and stimulated with recombinant Wnt-5a (rW5a) or the Wnt-5a derived Foxy-5 peptide (F5), for 24 h or 48 h. The ERα ligand estradiol was added for the final 22 h, and tamoxifen for the final 20 h to a subset of samples. RNA was extracted at the end time point, cDNA synthesized and subjected to RT-PCR for Cathepsin D (CATD), ER-binding fragment associated antigen 9 (EBAG9) and the housekeeping gene, β-actin.
cDNA was synthesized from 1 μg of total RNA using M-MuLV reverse transcriptase (Fermentas) in a MJ Mini Personal Thermal Cycler (Bio-Rad (Hercules Calif.)). All RT-PCR was performed in a designated clean PCR hood. RT-PCR was performed using a master mix containing with 5 μl of 10× buffer, 5 μl of 25 mM MgCl2, 1 μl 10 mM dNTP, 1 μl forward primer, 1 μl reverse primer and 0.2 μl of Taq polymerase (Fermentas (Ontario, Canada)) per sample. For detection of the progesterone receptor (PR), semi nested RT-PCR was performed to increase sensitivity, whereby 10 μl of the initial PCR reaction product was added to a second PCR reaction with a second internal reverse primer. Both A and β isoforms are amplified with these primers.

| Molecule | stimulation time after which ERα mRNA was detected (ERα [1]) | increase of degree of apoptosis (caspase-3 activity) (Caspase 3) | Estradiol induced expression of CATD (ERα [2]) | Estradiol induced expression of EBAG9 (ERα [2]) |
| --- | --- | --- | --- | --- |
| formyl-MDGCEL (For-MDGCEL; listed as Homo sapiens) [Foxy-5] | 6 h | three | consistently lost | consistently lost |
| recombinant Wnt-5a: recombinant Wnt-5a protein (R&D Systems) (protein, UniProt P41221 62-380, looked up) Protein Wnt-5a: IIGAQPLCSQLAGLSQGQKKLCHLYQDHMQYIGEGAKTGIKECQYQFRHRRWNCSTVDNTSVFGRVMQIGSRETAFTYAVSAAGVVNAMSRACREGELSTCGCSRAARPKDLPRDWLWGGCGDNIDYGYRFAKEFVDARERERIHAKGSYESARILMNLHNNEAGRRTVYNLADVACKCHGVSGSCSLKTCWLQLADFRKVGDALKEKYDSAAAMRLNSRGKLVQVNSRFNSPTTQDLVYIDPSPDYCVRNESTGSLGTQGRLCNKTSEGMDGCELMCCGRGYDQFKTVQTERCHCKFHWCCYVKCKKCTEIVDQFVCK | 12 h | two | consistently lost | consistently lost |
